Source: US20240043427A1 (Gilead Sciences, Inc., priority 2020, published 2024)

What was measured:
CD73 [1] = biological target: T1, CD73 (Homo sapiens (Human), UniProt P21589); assay: MDA-MB-231 Cell Based CD73 Activity Assay (DMEM); settings: MDA-MB-231-GFP cells, DMEM medium with 10% human plasma, 200 uM AMP
CD73 [2] = biological target: T1, CD73; format: biochemical; settings: 1 mM NaH2PO4 in enzyme buffer, CD73 0.3 nM, AMP 15 uM

T1 sequence (P21589 27-574): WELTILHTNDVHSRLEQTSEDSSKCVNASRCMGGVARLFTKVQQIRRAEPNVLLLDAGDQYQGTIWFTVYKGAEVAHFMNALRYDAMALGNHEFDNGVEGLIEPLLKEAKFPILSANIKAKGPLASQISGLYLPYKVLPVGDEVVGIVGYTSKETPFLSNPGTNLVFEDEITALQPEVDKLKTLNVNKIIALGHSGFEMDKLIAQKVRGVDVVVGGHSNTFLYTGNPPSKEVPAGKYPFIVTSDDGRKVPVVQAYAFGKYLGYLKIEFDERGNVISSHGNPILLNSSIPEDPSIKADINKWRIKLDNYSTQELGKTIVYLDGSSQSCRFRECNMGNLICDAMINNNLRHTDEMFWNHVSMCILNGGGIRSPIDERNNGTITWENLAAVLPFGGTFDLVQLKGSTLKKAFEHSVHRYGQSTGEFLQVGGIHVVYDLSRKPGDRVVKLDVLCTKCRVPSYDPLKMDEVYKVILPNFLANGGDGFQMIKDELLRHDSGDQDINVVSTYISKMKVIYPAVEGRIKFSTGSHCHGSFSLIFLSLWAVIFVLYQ

| EC50 (CD73 [1]) [nM] | IC50 (CD73 [2]) [nM] | SMILES |
| --- | --- | --- |
| 65.1 | 31 | CC1(C)CN(c2cc(-c3c[nH]c(=O)[nH]c3=O)nc3nccn23)CC1(F)F [Example 421, 5-(5-(3,3-difluoro-4,4-dimethylpyrrolidin-1-yl)imidazo[1,2-a]pyrimidin-7-yl)pyrimidine-2,4(1H,3H)-dione] |
| 155 | 72.7 | Cc1nc2c(N3CC(C)(C)C(F)(F)C3)cc(-c3c[nH]c(=O)[nH]c3=O)nn2c1F [Example 422, 5-(8-(3,3-difluoro-4,4-dimethylpyrrolidin-1-yl)-3-fluoro-2-methylimidazo[1,2-b]pyridazin-6-yl)pyrimidine-2,4(1H,3H)-dione] |
| 76.4 | 39.2 | O=c1[nH]cc(-c2cc(N3CC(F)(CO)C3)c3nccn3n2)c(=O)[nH]1 [Example 423, 5-(8-(3-fluoro-3-(hydroxymethyl)azetidin-1-yl)imidazo[1,2-b]pyridazin-6-yl)pyrimidine-2,4(1H,3H)-dione] |
| 4.1 | 1.64 | N#Cc1cc(F)c([C@H]2C[C@@H]2c2cc(-c3c[nH]c(=O)[nH]c3=O)nn3ccnc23)c(F)c1 [Example 424, 4-((1S,2S)-2-(6-(2,4-dioxo-1,2,3,4-tetrahydropyrimidin-5-yl)imidazo[1,2-b]pyridazin-8-yl)cyclopropyl)-3,5-difluorobenzonitrile] |
| 5.63 | 1.63 | N#Cc1cc(F)c([C@H]2C[C@@H]2c2cc(-c3c[nH]c(=O)[nH]c3=O)nn3c(F)cnc23)c(F)c1 [Example 425, 4-((1S,2S)-2-(6-(2,4-dioxo-1,2,3,4-tetrahydropyrimidin-5-yl)-3-fluoroimidazo[1,2-b]pyridazin-8-yl)cyclopropyl)-3,5-difluorobenzonitrile] |
| 4.5 | 0.23 | CC1(C)CN(c2cc(-c3c[nH]c(=O)[nH]c3=O)nn3ncnc23)CC1(F)F [Example 426, 5-(8-(3,3-difluoro-4,4-dimethylpyrrolidin-1-yl)-[1,2,4]triazolo[1,5-b]pyridazin-6-yl)pyrimidine-2,4(1H,3H)-dione] |
| 7.4 | 0.48 | O=c1[nH]cc(-c2cc([C@H]3C[C@@H]3c3ccc(C(F)(F)F)cc3)c3ncnn3n2)c(=O)[nH]1 [Example 427, 5-(8-((1S,2S)-2-(4-(trifluoromethyl)phenyl)cyclopropyl)-[1,2,4]triazolo[1,5-b]pyridazin-6-yl)pyrimidine-2,4(1H,3H)-dione] |
| 14.7 | 1.38 | N#Cc1cc(F)c([C@H]2C[C@@H]2c2cc(-c3c[nH]c(=O)[nH]c3=O)nn3ncnc23)c(F)c1 [Example 428, 4-((1S,2S)-2-(6-(2,4-dioxo-1,2,3,4-tetrahydropyrimidin-5-yl)-[1,2,4]triazolo[1,5-b]pyridazin-8-yl)cyclopropyl)-3,5-difluorobenzonitrile] |
| 8.89 | 2.22 | O=c1[nH]cc(-c2cc(N3CC[C@@H](OC(F)(F)F)C3)c3ncnn3n2)c(=O)[nH]1 [Example 429, (R)-5-(8-(3-(trifluoromethoxy)pyrrolidin-1-yl)-[1,2,4]triazolo[1,5-b]pyridazin-6-yl)pyrimidine-2,4(1H,3H)-dione] |
| 0.71 | 0.18 | O=c1[nH]cc(-c2cc([C@H]3C[C@@H]3c3ccc4c(cnn4CC(F)(F)F)c3)c3ncnn3n2)c(=O)[nH]1 [Example 430, 5-(8-((1S,2S)-2-(1-(2,2,2-trifluoroethyl)-1H-indazol-5-yl)cyclopropyl)-[1,2,4]triazolo[1,5-b]pyridazin-6-yl)pyrimidine-2,4(1H,3H)-dione] |
| 0.13 | 0.15 | O=c1[nH]cc(-c2cc([C@H]3C[C@@H]3c3ccc4cnn(CC(F)(F)F)c4c3)c3ncnn3n2)c(=O)[nH]1 [Example 431, 5-(8-((1S,2S)-2-(1-(2,2,2-trifluoroethyl)-1H-indazol-6-yl)cyclopropyl)-[1,2,4]triazolo[1,5-b]pyridazin-6-yl)pyrimidine-2,4(1H,3H)-dione] |
| 44.6 | 9.71 | O=c1[nH]cc(-c2cc(N3CC(F)(C(F)(F)F)C3)c3ncnn3n2)c(=O)[nH]1 [Example 433, 5-(8-(3-fluoro-3-(trifluoromethyl)azetidin-1-yl)-[1,2,4]triazolo[1,5-b]pyridazin-6-yl)pyrimidine-2,4(1H,3H)-dione] |
| 14.4 | 2.78 | O=c1[nH]cc(-c2cc(N3CC(Oc4ccc(C(F)(F)F)cn4)(C(F)(F)F)C3)c3nccn3n2)c(=O)[nH]1 [Example 434, 5-(8-(3-(trifluoromethyl)-3-((5-(trifluoromethyl)pyridin-2-yl)oxy)azetidin-1-yl)imidazo[1,2-b]pyridazin-6-yl)pyrimidine-2,4(1H,3H)-dione] |
| 66 | 6 | O=c1[nH]cc(-c2cc(N3CC(F)(COc4ccc(C(F)(F)F)cn4)C3)c3nccn3n2)c(=O)[nH]1 [Example 435, 5-(8-(3-fluoro-3-(((5-(trifluoromethyl)pyridin-2-yl)oxy)methyl)azetidin-1-yl)imidazo[1,2-b]pyridazin-6-yl)pyrimidine-2,4(1H,3H)-dione] |
| 43.6 | 12.8 | O=C(NCC(F)(F)F)OCC1(F)CN(c2cc(-c3c[nH]c(=O)[nH]c3=O)nn3ccnc23)C1 [Example 437, (1-(6-(2,4-dioxo-1,2,3,4-tetrahydropyrimidin-5-yl)imidazo[1,2-b]pyridazin-8-yl)-3-fluoroazetidin-3-yl)methyl (2,2,2-trifluoroethyl)carbamate] |
| 0.1 | 0.14 | CC(C)NC(=O)OCC(F)(F)COc1cc(-c2c[nH]c(=O)[nH]c2=O)nn2ncnc12 [Example 438, 3-((6-(2,4-dioxo-1,2,3,4-tetrahydropyrimidin-5-yl)-[1,2,4]triazolo[1,5-b]pyridazin-8-yl)oxy)-2,2-difluoropropyl isopropylcarbamate] |
| 2.63 | 0.77 | O=c1[nH]cc(-c2cc([C@H]3C[C@@H]3c3ccc(Cl)cn3)c3ncnn3n2)c(=O)[nH]1 [Example 439, 5-(8-((1S,2S)-2-(5-chloropyridin-2-yl)cyclopropyl)-[1,2,4]triazolo[1,5-b]pyridazin-6-yl)pyrimidine-2,4(1H,3H)-dione] |
| 140 | 38.2 | CC1(C)CN(c2cc(-c3c[nH]c(=O)[nH]c3=O)nn3c(F)c(C4CC4)nc23)CC1(F)F [Example 440, 5-(2-cyclopropyl-8-(3,3-difluoro-4,4-dimethylpyrrolidin-1-yl)-3-fluoroimidazo[1,2-b]pyridazin-6-yl)pyrimidine-2,4(1H,3H)-dione] |
| 239 | 46.3 | CC1(C)CN(c2cc(-c3c[nH]c(=O)[nH]c3=O)nn3cc(C4(C(F)(F)F)CC4)nc23)CC1(F)F [Example 441, 5-(8-(3,3-difluoro-4,4-dimethylpyrrolidin-1-yl)-2-(1-(trifluoromethyl)cyclopropyl)imidazo[1,2-b]pyridazin-6-yl)pyrimidine-2,4(1H,3H)-dione] |
| 19.6 | 6.46 | O=c1[nH]cc(-c2cc(N3CC4CCCC43)c3nccn3n2)c(=O)[nH]1 (stereo not shown) [Example 442, 5-(8-(6-azabicyclo[3.2.0]heptan-6-yl)imidazo[1,2-b]pyridazin-6-yl)pyrimidine-2,4(1H,3H)-dione] |
| 188 | 157 | O=c1[nH]cc(-c2cc(N3CC(CC(F)F)C3)c3nccn3n2)c(=O)[nH]1 [Example 443, 5-(8-(3-(2,2-difluoroethyl)azetidin-1-yl)imidazo[1,2-b]pyridazin-6-yl)pyrimidine-2,4(1H,3H)-dione] |
| 356 | 71 | CC1(CC(F)F)CN(c2cc(-c3c[nH]c(=O)[nH]c3=O)nn3ccnc23)C1 [Example 444, 5-(8-(3-(2,2-difluoroethyl)-3-methylazetidin-1-yl)imidazo[1,2-b]pyridazin-6-yl)pyrimidine-2,4(1H,3H)-dione] |
| 256 | 148 | CC1(CC(F)(F)F)CN(c2cc(-c3c[nH]c(=O)[nH]c3=O)nn3ccnc23)C1 [Example 445, 5-(8-(3-methyl-3-(2,2,2-trifluoroethyl)azetidin-1-yl)imidazo[1,2-b]pyridazin-6-yl)pyrimidine-2,4(1H,3H)-dione] |
| 1100 | 91 | O=c1[nH]cc(-c2cc(N3CC(C45CC(C4)C5)C3)c3nccn3n2)c(=O)[nH]1 [Example 446, 5-(8-(3-(bicyclo[1.1.1]pentan-1-yl)azetidin-1-yl)imidazo[1,2-b]pyridazin-6-yl)pyrimidine-2,4(1H,3H)-dione] |
| 718 | > 250 | O=c1[nH]cc(-c2cc(N3CC(OCC(F)(F)F)C3)c3nccn3n2)c(=O)[nH]1 [Example 447, 5-(8-(3-(2,2,2-trifluoroethoxy)azetidin-1-yl)imidazo[1,2-b]pyridazin-6-yl)pyrimidine-2,4(1H,3H)-dione] |
| 1360 | 194 | O=c1[nH]cc(-c2cc(N3CC4(CC(C(F)F)C4)C3)c3nccn3n2)c(=O)[nH]1 [Example 448, 5-(8-(6-(difluoromethyl)-2-azaspiro[3.3]heptan-2-yl)imidazo[1,2-b]pyridazin-6-yl)pyrimidine-2,4(1H,3H)-dione] |
| 473 | 132 | O=c1[nH]cc(-c2cc(N3CC4(C3)CC(F)(F)CO4)c3nccn3n2)c(=O)[nH]1 [Example 449, 5-(8-(7,7-difluoro-5-oxa-2-azaspiro[3.4]octan-2-yl)imidazo[1,2-b]pyridazin-6-yl)pyrimidine-2,4(1H,3H)-dione] |
| 250 | 230 | O=c1[nH]cc(-c2cc(N3CC(Cc4ccc(F)cc4F)C3)c3nccn3n2)c(=O)[nH]1 [Example 450, 5-(8-(3-(2,4-difluorobenzyl)azetidin-1-yl)imidazo[1,2-b]pyridazin-6-yl)pyrimidine-2,4(1H,3H)-dione] |
| 167 | 67.6 | O=c1[nH]cc(-c2cc(N3CC4CCCCC43)c3nccn3n2)c(=O)[nH]1 (stereo not shown) [Example 451, 5-(8-(7-azabicyclo[4.2.0]octan-7-yl)imidazo[1,2-b]pyridazin-6-yl)pyrimidine-2,4(1H,3H)-dione] |
